Tests used:
Format in all cases: in vivo
rice (Oryza sativa L.) [1] = experiment: Test Example 1: foliar treatment, upland pot; details: 21st day after application, crop
Text: (§1) Upland field soil was put into a 1/170,000 hectare pot, and seeds of various plants were sown. When the respective plants reached predetermined leaf stage ((1) barnyardgrass (Echinochloa crus-galli L.): 1.0 to 3.3 leaf stage, (2) crabgrass (Digitaria sanguinalis L.): 1.2 to 3.0 leaf stage, (3) green foxtail (Setaria viridis L.): 1.5 to 3.3 leaf stage, (4) redroot pigweed (Amaranthus retroflexus L.): 0.1 to 2.0 leaf stage, (5) prickly sida (Sida spinosa L.): cotyledon stage to 2.0 leaf stage, (6) velvetleaf (Abutilon theophrasti MEDIC.): 0.1 to 2.0 leaf stage, (7) rice (Oryza sativa L.): 1.3 to 3.0 leaf stage, (8) corn (Zea mays L.): 2.5 to 3.4 leaf stage, and (9) soybean (Glycine max Merr.): primary leaf stage to 0.3 leaf stage), wettable powders or emulsifiable concentrates of the compounds of the present invention prepared in accordance with a conventional preparation method, were weighed so that the active ingredients became the prescribed amounts, and diluted with water in an amount corresponding to 500 liter per 1 hectare (containing 0.1 vol % of an agricultural spreader (“KUSARINOH”, manufactured by NIHON NOHYAKU CO., LTD.)). The spray solutions thus prepared were applied for foliar treatment by a small sprayer.

[2] = tested on: prickly sida (Sida spinosa L.); experiment: Test Example 1: foliar treatment, upland pot; details: 21st day after application
Text: as §1

[3] = tested on: crabgrass (Digitaria sanguinalis L.); experiment: Test Example 1: foliar treatment, upland pot; details: 21st day after application
Text: as §1

[4] = tested on: green foxtail (Setaria viridis L.); experiment: Test Example 1: foliar treatment, upland pot; details: 21st day after application
Text: as §1

[5] = tested on: barnyardgrass (Echinochloa crus-galli L.); experiment: Test Example 1: foliar treatment, upland pot; details: 21st day after application
Text: as §1

[6] = tested on: redroot pigweed (Amaranthus retroflexus L.); experiment: Test Example 1: foliar treatment, upland pot; details: 21st day after application
Text: as §1

[7] = tested on: soybean (Glycine max Merr.); experiment: Test Example 1: foliar treatment, upland pot; details: 21st day after application, crop
Text: as §1

corn (Zea mays L.) [8] = experiment: Test Example 1: foliar treatment, upland pot; details: 21st day after application, crop
Text: as §1

[9] = tested on: velvetleaf (Abutilon theophrasti MEDIC.); experiment: Test Example 3: foliar treatment, comparison with reference compounds; details: 15 g/ha, 3.3 to 4.3 leaf stage
Text: (§2) Upland field soil was put into a 1/1,000,000 hectare pot, and seeds of various plants were sown. […] The spray solutions thus prepared were applied for foliar treatment by a small sprayer.

[10] = tested on: guineagrass (Panicum maximum Jacq.); experiment: as above; details: 3.5 g/ha, 3.5 to 4.3 leaf stage
Text: as §2

[11] = tested on: green foxtail (Setaria viridis L.); experiment: as above; details: 4.0 to 4.5 leaf stage
Text: as §2

corn (Zea mays L.) [12] = experiment: as above; details: 120 g/ha, 4.0 to 4.3 leaf stage, crop
Text: as §2

rice (Oryza sativa L.) [13] = experiment: Test Example 2: soil application on the day after sowing; details: 250 g/ha, 19th to 22nd day after application, crop
Text: (§3) Upland field soil was put into a 1/170,000 hectare pot, and seeds of various plants (barnyardgrass (Echinochloa crus-galli L.), crabgrass (Digitaria sanguinalis L.), green foxtail (Setaria viridis L.), redroot pigweed (Amaranthus retroflexus L.), prickly sida (Sida spinosa L.), velvetleaf (Abutilon theophrasti MEDIC.), rice (oryza sativa L.), corn (Zea mays L.) and soybean (Glycine max Merr.)) were sown. On the day after sowing, wettable powders or emulsifiable concentrates of the compounds of the present invention prepared in accordance with a conventional preparation method, were weighed so that the active ingredients became the prescribed amounts, and diluted with water in an amount corresponding to 500 liter per 1 hectare, followed by soil application with a small sprayer.

[14] = tested on: velvetleaf (Abutilon theophrasti MEDIC.); experiment: as above; details: 250 g/ha, 19th to 22nd day after application
Text: as §3

[15] = tested on: prickly sida (Sida spinosa L.); experiment: as above; details: 250 g/ha, 19th to 22nd day after application
Text: as §3

[16] = tested on: crabgrass (Digitaria sanguinalis L.); experiment: as above; details: 250 g/ha, 19th to 22nd day after application
Text: as §3

[17] = tested on: green foxtail (Setaria viridis L.); experiment: as above; details: 250 g/ha, 19th to 22nd day after application
Text: as §3

[18] = tested on: barnyardgrass (Echinochloa crus-galli L.); experiment: as above; details: 250 g/ha, 19th to 22nd day after application
Text: as §3

[19] = tested on: redroot pigweed (Amaranthus retroflexus L.); experiment: as above; details: 250 g/ha, 19th to 22nd day after application
Text: as §3

[20] = tested on: soybean (Glycine max Merr.); experiment: as above; details: 250 g/ha, 19th to 22nd day after application, crop
Text: as §3

corn (Zea mays L.) [21] = experiment: as above; details: 250 g/ha, 19th to 22nd day after application, crop
Text: as §3

[22] = tested on: velvetleaf (Abutilon theophrasti MEDIC.); experiment: Test Example 1: foliar treatment, upland pot; details: 63 g/ha, 21st day after application
Text: Upland field soil was put into a 1/170,000 hectare pot, and seeds of various plants were sown. […] The spray solutions thus prepared were applied for foliar treatment by a small sprayer.

[23] = tested on: rice (Oryza sativa L.) (var.: Nihonbare); experiment: Test Example 4: paddy field pot, water application, transplanted rice; details: 63 g/ha, 21st day after application, crop
Text: (§4) Paddy field soil was put into a 1/1,000,000 hectare pot, and seeds of barnyardgrass (Echinochloa oryzicola vasing.) and Japanese bulrush (Scirpus juncoides) were sown and lightly covered with soil. Then, pot was left to stand in a greenhouse in a state irrigated to a water depth of from 0.5 to 1 cm, and next day or two days later, tubers of Japanese ribbon waparo (Sagittaria pygmaea) were planted. Then, the irrigated water depth was maintained to be from 3 to 4 cm, and when barnyardgrass and Japanese bulrush reached 0.5 leaf stage, and Japanese ribbon waparo reached primary leaf stage, a water diluted solution of a wettable powder or an emulsifieable concentrate of the compound of the present invention prepared in accordance with a conventional preparation method, was uniformly dropwise applied by a pipette so that the amount of active ingredients would be a prescribed amount. Further, paddy field soil was put into a 1/1,000,000 pot, followed by soil puddling to an irrigated water depth of from 3 to 4 cm. Next day, rice (Oryza sativa L.) (var.: Nihonbare) of two leaf stage was transplanted in a transplantation depth of 3 cm. On the 4th day after transplantation, the compound of the present invention was applied in the same manner as described above.

[24] = tested on: Japanese ribbon waparo (Sagittaria pygmaea); experiment: Test Example 4: paddy field pot, water application; details: 63 g/ha, 14th day after application
Text: as §4

[25] = tested on: Japanese bulrush (Scirpus juncoides); experiment: Test Example 4: paddy field pot, water application; details: 63 g/ha, 14th day after application
Text: as §4

[26] = tested on: barnyardgrass (Echinochloa oryzicola vasing.); experiment: Test Example 4: paddy field pot, water application; details: 63 g/ha, 14th day after application
Text: as §4

CCOC(=O)OC(C)Oc1c(C(=O)c2ccc(S(C)(=O)=O)c(OCCOC)c2C)cnn1C (centres unmarked) [Compound No. 2, 1-(4-(3-(2-methoxyethoxy)-2-methyl-4-(methylsulfonyl)benzoyl)-1-methyl-1H-pyrazol-5-yloxy)ethyl ethylcarbonate]
Growth inhibition rate (%) Rice (rice (Oryza sativa L.) [1]; 7 g/ha): 80%
Growth inhibition rate (%) Rice (rice (Oryza sativa L.) [1]; 63 g/ha): 70%
Growth inhibition rate (%) Prickly sida ([2]; 7 g/ha): 40%
Growth inhibition rate (%) Prickly sida ([2]; 63 g/ha): 85%
Growth inhibition rate (%) Crabgrass ([3]; 7 g/ha): 95%
Growth inhibition rate (%) Crabgrass ([3]; 63 g/ha): 100%
Growth inhibition rate (%) Green foxtail ([4]; 7 g/ha): 95%
Growth inhibition rate (%) Green foxtail ([4]; 63 g/ha): 100%
Growth inhibition rate (%) Barnyardgrass ([5]; 7 g/ha): 100%
Growth inhibition rate (%) Barnyardgrass ([5]; 63 g/ha): 100%
Growth inhibition rate (%) Redroot pigweed ([6]; 7 g/ha): 100%
Growth inhibition rate (%) Redroot pigweed ([6]; 63 g/ha): 100%
Growth inhibition rate (%) Soybean ([7]; 7 g/ha): 80%
Growth inhibition rate (%) Soybean ([7]; 63 g/ha): 98%
Growth inhibition rate (%) Corn (corn (Zea mays L.) [8]; 7 g/ha): 0%
Growth inhibition rate (%) Corn (corn (Zea mays L.) [8]; 63 g/ha): 0%
Growth inhibition rate (%) (22nd day after application) Velvet leaf [9]: 94%
Growth inhibition rate (%) (18th day after application) Guineagrass [10]: 90%
Growth inhibition rate (%) (17th day after application) Green foxtail ([11]; 3.5 g/ha): 93%
Growth inhibition rate (%) (17th day after application) Green foxtail ([11]; 7 g/ha): 98%
Growth inhibition rate (%) (21st day after application) Corn (corn (Zea mays L.) [12]): 4%
Growth inhibition rate (%) Rice (rice (Oryza sativa L.) [13]): 98%
Growth inhibition rate (%) Velvetleaf [14]: 60%
Growth inhibition rate (%) Prickly sida [15]: 70%
Growth inhibition rate (%) Crabgrass [16]: 100%
Growth inhibition rate (%) Green foxtail [17]: 100%
Growth inhibition rate (%) Barnyardgrass [18]: 100%
Growth inhibition rate (%) Redroot pigweed [19]: 100%
Growth inhibition rate (%) Soybean [20]: 0%
Growth inhibition rate (%) Corn (corn (Zea mays L.) [21]): 0%
Growth inhibition rate (%) Velvetleaf [22]: 100%
Growth inhibition rate (%) Rice [23]: 50%
Growth inhibition rate (%) Japanese ribbon waparo [24]: 95%
Growth inhibition rate (%) Japanese bulrush [25]: 60%
Growth inhibition rate (%) Barnyardgrass [26]: 100%

From patent publication US8119569B2, “Benzoylpyrazole compounds, process for their production and herbicides containing them” (Ishihara Sangyo Kaisha, Ltd., priority 2006, dated 2012)
